Laboratory results as given in US20130052381A1, “POLYEPOXIDES AND EPOXY RESINS AND METHODS FOR THE MANUFACTURE AND USE THEREOF” (priority 2011, published 2013).

Key:
[1] = target: recombinant human estradiol receptors (rhER) beta 1 (β1) (Homo sapiens, UniProt Q92731); experiment: competitive radioligand binding assay, rhER beta 1; conditions: at as high as […]10^−4 molar concentration
[2] = target: T1, recombinant human estradiol receptors (rhER) alpha (α) (Homo sapiens, UniProt P03372); experiment: competitive radioligand binding assay, rhER alpha; conditions: at as high as […]10^−4 molar concentration
T1 sequence (P03372 1-595): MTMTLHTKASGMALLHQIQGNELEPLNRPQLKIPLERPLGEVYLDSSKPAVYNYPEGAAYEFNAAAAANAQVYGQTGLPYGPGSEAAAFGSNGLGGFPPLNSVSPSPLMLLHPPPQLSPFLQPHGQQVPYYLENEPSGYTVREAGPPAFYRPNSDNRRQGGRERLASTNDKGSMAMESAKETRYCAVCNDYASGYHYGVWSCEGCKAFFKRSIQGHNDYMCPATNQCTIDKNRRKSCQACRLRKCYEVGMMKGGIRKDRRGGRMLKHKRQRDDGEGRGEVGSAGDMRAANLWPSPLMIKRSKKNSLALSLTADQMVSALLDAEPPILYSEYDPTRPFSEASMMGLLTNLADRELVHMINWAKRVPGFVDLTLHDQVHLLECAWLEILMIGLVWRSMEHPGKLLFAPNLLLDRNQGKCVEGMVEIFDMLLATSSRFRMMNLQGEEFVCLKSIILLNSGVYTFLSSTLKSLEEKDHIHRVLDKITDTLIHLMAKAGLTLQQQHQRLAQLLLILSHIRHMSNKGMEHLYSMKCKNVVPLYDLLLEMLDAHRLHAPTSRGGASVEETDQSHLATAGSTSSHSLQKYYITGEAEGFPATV

Compound	estradiol displacement at the beta estradiol receptor [1]	estradiol displacement at the alpha estradiol receptor [2]
O=C1c2ccccc2C(c2ccc(O)cc2)(c2ccc(O)cc2)N1c1ccccc1 [Example 4, N-Phenyl Phenolphthalein Bisphenol]	no detectible estradiol displacement	no detectible estradiol displacement
Oc1cccc(O)c1 [Example 5, Resorcinol]	no detectible estradiol displacement	no detectible estradiol displacement
CC(C)(C)c1cc(O)c(C(C)(C)C)cc1O [Example 8, Di t-Butyl Hydroquinone]	no displacement	no displacement
Cc1cc(O)ccc1O [Example 9, Methyl Hydroquinone]	no alpha or beta estradiol displacement	–
Biphenol [Example 7]	–	no displacement
